Molecular target: T1, Des1 (Homo sapiens, UniProt O15121)
T1 sequence (O15121 1-323): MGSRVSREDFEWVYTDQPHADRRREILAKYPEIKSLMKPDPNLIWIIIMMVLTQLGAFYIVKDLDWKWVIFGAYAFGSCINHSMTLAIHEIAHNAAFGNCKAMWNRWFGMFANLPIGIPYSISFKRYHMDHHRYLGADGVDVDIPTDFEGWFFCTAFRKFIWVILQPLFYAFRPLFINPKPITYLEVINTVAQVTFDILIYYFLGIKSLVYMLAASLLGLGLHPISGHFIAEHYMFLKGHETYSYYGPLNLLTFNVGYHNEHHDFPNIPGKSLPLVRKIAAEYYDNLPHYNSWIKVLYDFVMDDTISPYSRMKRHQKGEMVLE
Assay: Jurkat T cell measurement of conversion of dihydroceramide to ceramide (Des1 activity, LC-MS/MS of NBD-C6-ceramide)
Assay type: cell-based
Design: endogenous in cells; host or cells: Jurkat clone E6-1
Details: Jurkat clone E6-1 cells, 10 μM NBD-C6-dihydroceramide, 3 hours at 37° C.; for inhibition at 0.5 µM: 0.5 uM compound, read-out: Des1 % Inhib (0.5 uM); for IC50: read-out: Des1 IC50
Protocol: Jurkat T Cell Measurement of Conversion of Dihydroceramide to Ceramide
Jurkat clone E6-1 cells were grown and then seeded at 10^6 cells/mL in a 96-well plate (400 μL in each well. The cells were administered 100 μL of cell culture media containing 50-μM NBD-C6-dihydroceramide (Des1 substrate), affording a final concentration of substrate of 10 μM. The cells were incubated with substrate at 4° C. for 30 minutes. Following the incubation at 4° C., the cell suspension was centrifuged at 1200 rpm for 3 minutes, and the cell pellet is resuspended in 400 μL of fresh media containing various concentrations of either fenretinide (known Des1 inhibitor control compound) or test article. The final concentrations of control compound and test compounds were tested in a range from 0-10 μM. The cells and compounds were incubated at 37° C. for 3 hours. Following the 3-hour incubation, the plate was centrifuged at 2500 g for 3 minutes at 4° C., followed by collection and transfer of 200 μL of the supernatant to a new 96-well plate with 300 μL of methanol an containing appropriate internal standards for liquid chromatography/tandem mass spectroscopy (LC/MS/MS) analysis (internal standard: 500 nM labetalol and 100 nM alprazolam). The samples were vortexed for 2 minutes followed by centrifugation at 3,220 g for 20 minutes. Following centrifugation, 200 μL of the supernatant was transferred to a new 96-well plate for LC-MS/MS analysis to determine the amount of NBD-C6-ceramide (Des1 product) produced. The assay was typically performed in duplicate. A reduction of at least 30% compared to vehicle control (0 μM test article) is indicative of an active compound, and a reduction of 75% compared to vehicle control is preferred.

inhibition at 0.5 µM | IC50 | Compound
91.3% | 3 nM | O=C(Nc1ccc(O)cn1)N1CCN(c2cccc(F)n2)CC1 [Example 35, 4-(6-fluoropyridin-2-yl)-N-(5-hydroxypyridin-2-yl)piperazine-1-carboxamide]
94.9% | 23 nM | O=C(Nc1ccc(O)cn1)N1CCN(c2cccc(C(F)(F)F)n2)CC1 [Example 36, N-(5-hydroxypyridin-2-yl)-4-[6-(trifluoromethyl)pyridin-2-yl]piperazine-1-carboxamide]
80.7% | – | O=C(Nc1ccc(O)cn1)N1CCN(Cc2ccccc2)CC1 [Example 37, 4-benzyl-N-(5-hydroxypyridin-2-yl)piperazine-1-carboxamide]
91.5% | 60 nM | O=C(Nc1ccc(O)cn1)N1CCN(Cc2ccc(F)cc2)CC1 [Example 38, 4-[(4-Fluorophenyl)methyl]-N-(5-hydroxypyridin-2-yl)piperazine-1-carboxamide]
9.11% | – | O=C(Nc1ccc(O)cn1)N1CCN(c2cccnc2)CC1 [Example 39, 1-[((5-Hydroxypyridin-2-yl)amino)carbonyl]-4-(pyridin-3-yl)piperazine]
89.1% | 13 nM | CCCCCCNC(=O)Nc1ccc(O)cn1 [Example 40, 1-Hexyl-3-(5-hydroxypyridin-2-yl)urea]
95.1% | 13 nM | CCCCCCOC(=O)Nc1ccc(O)cn1 [Example 41, Hexyl N-(5-hydroxypyridin-2-yl)carbamate]
81.4% | 35 nM | O=C(Nc1ccc(O)cn1)OC1CCCCC1 [Example 42, Cyclohexyl N-(5-hydroxypyridin-2-yl)carbamate]
97% | 6 nM | O=C(Nc1ccc(O)cn1)O[C@H]1CC[C@H](c2ccccc2)CC1 [Example 43, (1r,4r)-4-Phenylcyclohexyl N-(5-hydroxypyridin-2-yl)carbamate]
95% | 8 nM | O=C(Nc1ccc(O)cn1)OC1CCN(c2ccccc2)CC1 [Example 44, 1-Phenylpiperidin-4-yl N-(5-hydroxypyridin-2-yl)carbamate]
– | 470 nM | COc1ccc(N2CCN(C(=O)Nc3ccc(O)cn3)CC2)nc1 [Example 45, N-(5-hydroxypyridin-2-yl)-4-(5-methoxypyridin-2-yl)piperazine-1-carboxamide]
94.5% | 7 nM | O=C(Nc1ccc(O)cn1)N1CCN(c2ccc(OC(F)(F)F)cn2)CC1 [Example 46, N-(5-hydroxypyridin-2-yl)-4-[5-(trifluoromethoxy)pyridin-2-yl]piperazine-1-carboxamide]
51.8% | – | O=C(Nc1ccc(O)cn1)NC1CCCN(c2ccc(F)cc2)C1 (centres unmarked) [Example 47, 1-[1-(4-fluorophenyl)piperidin-3-yl]-3-(5-hydroxypyridin-2-yl)urea]
39.8% | – | O=C(Nc1ccc(O)cn1)NC1CCCN(c2ccc(Cl)cc2)C1 (centres unmarked) [Example 48, 1-[1-(4-chlorophenyl)piperidin-3-yl]-3-(5-hydroxypyridin-2-yl)urea]
– | 130 nM | O=C(Nc1ccc(O)cn1)NC1CCN(c2ccc(F)cn2)CC1 [Example 49, 1-[1-(5-fluoropyridin-2-yl)piperidin-4-yl]-3-(5-hydroxypyridin-2-yl)urea]
83% | – | O=C(Nc1ccc(O)cn1)N1CCN(c2ccc(F)nc2)CC1 [Example 50, 4-(6-fluoropyridin-3-yl)-N-(5-hydroxypyridin-2-yl) piperazine-1-carboxamide]
91.5% | 92 nM | O=C(Nc1ccc(O)cn1)NC1CCN(c2ccc(F)cc2)CC1 [Example 51, 1-[1-(4-fluorophenyl)piperidin-4-yl]-3-(5-hydroxypyridin-2-yl)urea]
– | 29 nM | O=C(Nc1ccc(O)cn1)NC1CCN(c2ccc(Cl)cc2)CC1 [Example 52, 1-[1-(4-chlorophenyl)piperidin-4-yl]-3-(5-hydroxypyridin-2-yl)urea]
94.8% | 4 nM | O=C(Nc1ccc(O)cn1)OC1CCN(c2ccc(F)cc2)CC1 [Example 53, 1-(4-fluorophenyl)piperidin-4-yl N-(5-hydroxypyridin-2-yl)carbamate]

inhibition at 0.5 µM | IC50 | Compound
– | 5 nM | O=C(Nc1ccc(O)cn1)OC1CCN(c2ccc(F)cc2F)CC1 [Example 54, 1-(2,4-difluorophenyl)piperidin-4-yl N-(5-hydroxypyridin-2-yl)carbamate]
96.5% | 2 nM | O=C(Nc1ccc(O)cn1)OC1CCN(c2ccc(Cl)cc2)CC1 [Example 55, 1-(4-chlorophenyl)piperidin-4-yl N-(5-hydroxypyridin-2-yl)carbamate]
94.7% | 28 nM | O=C(Nc1ccc(O)cn1)OC1CCN(c2ccc(F)cn2)CC1 [Example 56, 1-(5-fluoropyridin-2-yl)piperidin-4-yl N-(5-hydroxypyridin-2-yl)carbamate]
95.5% | 1 nM | O=C(Nc1ccc(O)cn1)OC1CCN(c2ccc(C(F)(F)F)cc2)CC1 [Example 57, 1-[4-(trifluoromethyl)phenyl] piperidin-4-yl N-(5-hydroxypyridin-2-yl) carbamate]
96.8% | 4 nM | O=C(Nc1ccc(O)cn1)OC1CCN(c2ccc(Cl)cc2Cl)CC1 [Example 58, 1-(2,4-dichlorophenyl)piperidin-4-yl N-(5-hydroxypyridin-2-yl)carbamate]
93.2% | 43 nM | O=C(Nc1ccc(O)cn1)OC1CCN(c2ccccn2)CC1 [Example 59, 1-(pyridin-2-yl)piperidin-4-yl N-(5-hydroxypyridin-2-yl)carbamate]
96% | 3 nM | O=C(Nc1ccc(O)cn1)OC1CCN(c2ccc(C(F)(F)F)cn2)CC1 [Example 60, 1-[5-(trifluoromethyl)pyridin-2-yl]piperidin-4-yl N-(5-hydroxypyridin-2-yl)carbamate]
37.5% | – | CC(C)c1ccc(S(=O)(=O)Nc2ccc(O)cn2)cc1 [Example 61, N-(5-Hydroxypyridin-2-yl)-4-(propan-2-yl)benzene-1-sulfonamide]
69.4% | 310 nM | CC(C)(C)c1ccc(S(=O)(=O)Nc2ccc(O)cn2)cc1 [Example 62, 4-tert-Butyl-N-(5-hydroxypyridin-2-yl)benzene-1-sulfonamide]
– | > 1000 nM | O=C(OCc1ccccc1)N1CCC(S(=O)(=O)Nc2ccc(O)cn2)CC1 [Example 63, Benzyl 4-[(5-hydroxypyridin-2-yl)sulfamoyl]piperidine-1-carboxylate]
19.2% | – | O=S(=O)(Nc1ccc(O)cn1)C1CCN(c2ccccc2)CC1 [Example 64, N-(5-hydroxypyridin-2-yl)-1-phenylpiperidine-4-sulfonamide]
– | > 1000 nM | O=S(=O)(Nc1ccc(O)cn1)C1CCN(Cc2ccccc2)CC1 [Example 65, 1-benzyl-N-(5-hydroxypyridin-2-yl)piperidine-4-sulfonamide]
72.1% | – | O=S(=O)(Nc1ccc(O)cn1)C1CCN(c2ccc(F)cc2)CC1 [Example 66, 1-(4-fluorophenyl)-N-(5-hydroxypyridin-2-yl)piperidine-4-sulfonamide]
85.3% | – | O=S(=O)(Nc1ccc(O)cn1)C1CCN(c2ccc(Cl)cn2)CC1 [Example 67, 1-(5-chloropyridin-2-yl)-N-(5-hydroxypyridin-2-yl)piperidine-4-sulfonamide]
92.4% | 85 nM | O=S(=O)(Nc1ccc(O)cn1)C1CCN(c2ccc(Cl)cc2)CC1 [Example 68, 1-(4-chlorophenyl)-N-(5-hydroxypyridin-2-yl)piperidine-4-sulfonamide]
95% | 40 nM | O=S(=O)(Nc1ccc(O)cn1)C1CCN(c2ccc(C(F)(F)F)cc2)CC1 [Example 69, N-(5-hydroxypyridin-2-yl)-1-[4-(trifluoromethyl)phenyl]piperidine-4-sulfonamide]
83.8% | 110 nM | CC(C)CCCCCS(=O)(=O)Nc1ccc(O)cn1 [Example 70, N-(5-Hydroxypyridin-2-yl)-6-methylheptane-1-sulfonamide]
88% | 31 nM | O=S(=O)(Nc1ccc(O)cn1)N1CCC(c2ccc(Cl)cc2)CC1 [Example 71, 4-(4-chlorophenyl)-N-(5-hydroxypyridin-2-yl)piperidine-1-sulfonamide]

From patent publication US12247019B2 (Centaurus Therapeutics, priority 2018, dated 2025)
